Measured values reported in patent US20230157996A1, “SMALL-MOLECULE INHIBITOR TARGETING EB VIRUS NUCLEAR ANTIGEN PROTEIN, PREPARATION METHOD AND USE THEREOF” (priority 2020, published 2023).

system: C666-1 cells; assay: C666-1 cell viability single concentration (50 μM) inhibition rate (Resazurin); type: cell-based; settings: Homo sapiens, C6661, 72 h, 50 μM compound, 72 hours, C666-1 cells; read-out: C666-1 cell viability single concentration (50 μM) inhibition rate, Ratio* (Inh %)
Summary of the method: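 Resazurin fluorescence (560/590 nm, 3 h development) gave the proliferation inhibition rate, normalised to DMSO-treated and cell-free blank wells. Compound was tested at a single 50 μmol/L final concentration on C666-1 cells for 72 h at 37° C, with duplicate wells, after 24 h seeding.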

Row | Compound | inhibition at 50 µM [%]
1 | COCCOCc1ccc(OC2CN(c3cccc(C(=O)O)c3-n3cccc3)C2)cc1 [Example 371] | 10 to 30
2 | COC(=O)c1cccc(N2CC(S(=O)(=O)c3ccc(CO)cc3)C2)c1-n1cccc1 [Example 357, Methyl 3-(3-((4-(hydroxymethyl)phenyl)sulfonyl)azetidin-1-yl)-2-(1H-pyrrol-1-yl)benzoate] | < 10
3 | COc1ccc(C(OC(C)=O)C23CC(c4cccc(C(=O)O)c4)(C2)C3)cc1 (centres unmarked) [Compound 1, 3-(3-(acetoxyl(4-methoxyphenyl)methyl)bicyclo[1. 1.1]pentan-1-yl)benzoic acid] | < 10
4 | CCNC(=S)OC1CN(c2cccc(C(=O)OC)c2-n2cccc2)C1 [Example 160, Methyl 3-(3-((ethylthiocarbamoyl)oxy)azetidin-1-yl)-2-(1H-pyrrol-1-yl)benzoate] | 30 to 50
5 | O=C(O)c1cccc(N2CC(Oc3ccc(Cl)nc3)C2)c1-n1cccc1 [Compound 86, 3-(3-((6-chloropyridin-3-yl)oxy)azetidin-1-yl)-2-(1H-pyrrol-1-yl)benzoic acid] | < 10
6 | COC(=O)c1cccc(N2CC(NC(=O)NC3CC3)C2)c1-n1cccc1 [Example 164, Methyl 3-(3-(3-cyclopropylureido)azetidin-1-yl)-2-(1H-pyrrol-1-yl)benzoate] | < 10
7 | COC(=O)c1cccc(N2CC(Oc3ccc(Oc4ccccc4)c(F)c3)C2)c1-n1cccc1 [Example 200, Methyl 3-(3-(3-fluoro-4-phenoxyphenoxy)azetidin-1-yl)-2-(1H-pyrrol-1-yl)benzoate] | < 10
8 | Nc1c(C(=O)O)cccc1N1CC2(CN(c3ccccc3)C2)C1 [Compound 10, 2-amino-3-(6-phenyl-2,6-diazaspiro[3.3]heptan-2-yl)benzoic acid] | < 10
9 | COC(=O)c1cccc(N2CC(Oc3ccc(COc4cccc(C(F)(F)F)c4)cc3)C2)c1-n1cccc1 [Example 249, Methyl 3-(3-(4-((3-(trifluoromethyl)phenoxy)methyl)phenoxy)azetidin-1-yl)-2-(1H-pyrrol-1-yl)benzoate] | < 10
10 | O=C(O)c1cccc(N2CC(Oc3ccc(CNCc4ccccc4)cc3)C2)c1-n1cccc1 [Example 365] | < 10
11 | CC(C)C(=O)c1ccc(OC2CN(c3cccc(C(=O)O)c3-n3cccc3)C2)cc1 [Example 217, 3-(3-(4-isobutyrylphenoxy)azetidin-1-yl)-2-(1H-pyrrol-1-yl)benzoic acid] | < 10
12 | Cc1ccc(S(=O)(=O)N(C#Cc2cccc(C(=O)O)c2-n2cccc2)Cc2ccccc2)cc1 [Example 380, 3-(((N-benzyl-4-methylphenyl)sulfonamido)ethynyl)-2-(1H-pyrrol-1-yl)benzoic acid] | < 10
13 | COC(=O)c1cccc(N2CC(Oc3ccc(CO)cc3)C2)c1-c1cccc(NS(C)(=O)=O)c1 [Compound 65, Methyl 3′-(methylsulfonamido)-6-(3-(4-(hydroxymethyl)phenoxy)azetidin-1-yl)-[1,1′-biphenyl]-2-formate] | 30 to 50
14 | O=C(O)c1cccc(N2CC(Oc3ccc4cc[nH]c4c3)C2)c1-n1cccc1 [Example 104, 3-(3-((1H-indol-6-yl)oxy)azetidin-1-yl)-2-(1H-pyrrol-1-yl)benzoic acid] | < 10
15 | COC(=O)c1cccc(N2CC(Sc3ccc(CO)cc3)C2)c1-n1cccc1 [Example 352, Methyl 3-(3-((4-(hydroxymethyl)phenyl)thio)azetidin-1-yl)-2-(1H-pyrrol-1-yl)benzoate] | > 50
16 | COC(=O)c1cccc(C23CC(c4ccc(OC)cc4)(C2)C3)c1-n1cccc1 [Compound 7, Methyl 3-(3-(4-methoxyphenyl)bicyclo[1.1.1]pentan-1-yl)-2-(1H-pyrrol-1-yl)benzoate] | < 10
17 | O=C(O)c1cccc(N2CC(Oc3ccc(CO)cc3)C2)c1-c1ccoc1 [Compound 49] | < 10
18 | COC(=O)c1cccc(N2CC(Oc3ccc(CO)cc3)C2)c1-c1cccc(Cl)c1 [Compound 53, Methyl 3′-chloro-6-(3-(4-(hydroxymethyl)phenoxy)azetidin-1-yl)-[1,1′-biphenyl]-2-formate] | 10 to 30
19 | COC(=O)c1cccc(N2CC(Oc3ccc(CNC(C)=O)cc3)C2)c1-n1cccc1 [Compound 76, Methyl 3-(3-(4-(acetylaminomethyl)phenoxy)azetidin-1-yl)-2-(1H-pyrrol-1-yl)benzoate] | 10 to 30
20 | O=C(O)c1cccc(N2CC(Oc3ccc(CO)cc3)C2)c1-c1ccccc1 [Compound 42] | < 10

Row | Compound | inhibition at 50 µM [%]
21 | O=C(O)c1cccc(N2CC(Oc3ccc(COc4cccc(F)c4)cc3)C2)c1-n1cccc1 [Example 248, 3-(3-(4-((3-fluorophenoxy)methyl)phenoxy)azetidin-1-yl)-2-(1H-pyrrol-1-yl)benzoic acid] | < 10
22 | CCCCOc1ccc(OC2CN(c3cccc(C(=O)O)c3-n3cccc3)C2)cc1 [Example 108, 3-(3-(4-butoxyphenoxy)azetidin-1-yl)-2-(1H-pyrrol-1-yl)benzoic acid] | < 10
23 | O=C(O)c1cccc(N2CC(Oc3ccc(Oc4ccccc4)cc3)C2)c1-n1cccc1 [Example 112, 3-(3-(4-phenoxyphenoxy)azetidin-1-yl)-2-(1H-pyrrol-1-yl)benzoic acid] | < 10
24 | COC(=O)c1cccc(N2CC(Oc3ccc(COc4ccc(F)cc4)cc3)C2)c1-n1cccc1 [Example 245, Methyl 3-(3-(4-((4-fluorophenoxy)methyl)phenoxy)azetidin-1-yl)-2-(1H-pyrrol-1-yl)benzoate] | < 10
25 | Nc1ccc(N2CC3(C2)CN(c2cccc(C(=O)O)c2N)C3)cc1 [Compound 14, 2-amino-3-(6-(4-aminophenyl)-2,6-diazaspiro[3.3]heptan-2-yl)benzoic acid] | < 10
26 | N#Cc1cccc(NC(=O)Nc2ccc(OC3CN(c4cccc(C(=O)O)c4-n4cccc4)C3)cc2)c1 [Example 138, 3-(3-(4-(3-(3-cyanophenyl)ureido)phenoxy)azetidin-1-yl)-2-(1H-pyrrol-1-yl)benzoic acid] | < 10
27 | COC(=O)c1cccc(N2CC(Oc3cccc(-c4csc(NS(C)(=O)=O)n4)c3)C2)c1-n1cccc1 [Example 288, Methyl 3-(3-(3-(2-(methylsulfonamido)thiazol-4-yl)phenoxy)azetidin-1-yl)-2-(1H-pyrrol-1-yl)benzoate] | < 10
28 | COC(=O)c1cccc(N2CC(Oc3cccc(Oc4ccccc4)c3)C2)c1-n1cccc1 [Example 222, Methyl 3-(3-(3-phenoxyphenoxy)azetidin-1-yl)-2-(1H-pyrrol-1-yl)benzoate] | < 10
29 | COC(=O)c1cccc(C#CN(Cc2ccc(C(F)(F)F)cc2)S(=O)(=O)c2cccs2)c1-n1cccc1 [Example 336, Methyl 3-((N-(4-(trifluoromethyl)benzyl)thiophen-2-sulfonamido)ethynyl)-2-(1H-pyrrol-1-yl)benzoate] | < 10
30 | O=C(O)c1cccc(C23CC(C(O)c4ccc(C(F)(F)F)nc4)(C2)C3)c1 (centres unmarked) [Compound 3, 3-(3-(hydroxyl(6-(trifluoromethyl)pyridin-3-yl)methyl)bicyclo[1.1.1]pentan-1-yl)benzoic acid] | < 10
31 | O=C(O)c1cccc(N2CC(Oc3ccc(Sc4ccccc4)cc3)C2)c1-n1cccc1 [Example 209, 3-(3-(4-(thiophenyl)phenoxy)azetidin-1-yl)-2-(1H-pyrrol-1-yl)benzoic acid] | 10 to 30
32 | O=C(O)c1cccc(N2CC(Oc3ccc(CO)cc3)C2)c1-n1cccn1 [Compound 70, 3-(3-(4-(hydroxymethyl)phenoxy)azetidin-1-yl)-2-(1H-pyrazol-1-yl)benzoic acid] | < 10
33 | O=C(O)c1cccc(N2CC(Oc3ccc(NS(=O)(=O)C4CC4)cc3)C2)c1-n1cccc1 [Example 127, 3-(3-(4-(cyclopropylsulfonamido)phenoxy)azetidin-1-yl)-2-(1H-pyrrol-1-yl)benzoic acid] | < 10
34 | O=C(O)c1cccc(N2CC(Oc3cc(Cl)nc(Cl)c3)C2)c1-n1cccc1 [Compound 92, 3-(3-((2,6-dichloropyridin-4-yl)oxy)azetidin-1-yl)-2-(1H-pyrrol-1-yl)benzoic acid] | < 10
35 | COCCOCc1ccc(OC2CN(c3cccc(C(=O)OC)c3-n3cccc3)C2)cc1 [Example 370] | 10 to 30
36 | COC(=O)c1cccc(C#CN(Cc2cccnc2)S(=O)(=O)c2ccc(C)cc2)c1-n1cccc1 [Example 387] | > 50
37 | COC(=O)c1cccc(N2CC(NC(=O)Nc3ccc(Oc4ccccc4)cc3)C2)c1-n1cccc1 [Example 165, Methyl 3-(3-(3-(4-phenoxyphenyl)ureido)azetidin-1-yl)-2-(H-pyrrol-1-yl)benzoate] | 10 to 30
38 | COC(=O)c1cccc(N2CC(S(=O)(=O)C3CCCCC3)C2)c1-n1cccc1 [Example 355, Methyl 3-(3-(cyclohexylsulfonyl)azetidin-1-yl)-2-(1H-pyrrol-1-yl)benzoate] | 10 to 30
39 | O=C(O)c1cccc(N2CC(NC(=S)Nc3ccc(Cl)cc3)C2)c1-n1cccc1 [Example 175, 3-(3-(3-(4-chlorophenyl)thioureido)azetidin-1-yl)-2-(1H-pyrrol-1-yl)benzoic acid] | < 10

same assay, conditions: Homo sapiens, C6661, 72 h, read-out: C666-1 cell viability single concentration (50 μM) inhibition rate, Ratio* (Inh %)

Row | Compound | inhibition at 50 µM [%]
40 | Cc1ccc(S(=O)(=O)N(C#Cc2cccc(C(=O)O)c2-n2cccc2)CC2CCN(C)CC2)cc1 [Example 319, Lithium 3-(((4-methyl-N-((1-methylpiperidin-4-yl)methyl)phenyl)sulfonamido)ethynyl)-2-(1H-pyrrol-1-yl)benzoate] | > 50
41 | Cn1ccc2cc(CN(C#Cc3cccc(C(=O)O)c3-n3cccc3)S(=O)(=O)c3csc4ccccc34)ccc21 [Example 335, Lithium 3-((N-((1-methyl-1H-indol-5-yl)methyl)benzo[b]thiophen-3-sulfonamido)ethynyl)-2-(1H-pyrrol-1-yl)benzoate] | < 10
